This note sets out measurements from ChEMBL document CHEMBL1201862, “PubChem BioAssay data set” (2004).

Structures are written as SMILES. Active and inactive are the calls of the source.

Assay [1] in a line: Luminescence Cell-Based Dose Confirmation HTS to Identify Activators of 5'UTR Stem-Loop Driven Alpha-Synuclein mRNA Translation in H4 Neuroglioblastoma Cells. [Related pubchem assays: 1829 (Project Summary), 1814 (Primary HTS)]. The format is functional.
Another assay has as its system H4. The experiment in a line: Luminescence Cell-Based Dose Response HTS to Identify Activators of 5'UTR Stem-Loop Driven Prion Protein mRNA Translation in H4 Neuroglioblastoma Cells. [Related pubchem assays: 1829 (Project Summary), 1814 (Primary HTS)]. The format is functional. To be noted: Homo sapiens.
Assay [2] in a line: Luminescence Cell-Based Dose Response HTS to Identify Activators of Luciferase Translation or Activity in H4 […] Cells. [Related pubchem assays: 1829 (Project Summary), 1814 (Primary HTS)]. The class given is functional.
Another assay has as its target T1, Protein skinhead-1 (Caenorhabditis elegans, UniProt P34707).
T1 sequence (P34707 whole entry): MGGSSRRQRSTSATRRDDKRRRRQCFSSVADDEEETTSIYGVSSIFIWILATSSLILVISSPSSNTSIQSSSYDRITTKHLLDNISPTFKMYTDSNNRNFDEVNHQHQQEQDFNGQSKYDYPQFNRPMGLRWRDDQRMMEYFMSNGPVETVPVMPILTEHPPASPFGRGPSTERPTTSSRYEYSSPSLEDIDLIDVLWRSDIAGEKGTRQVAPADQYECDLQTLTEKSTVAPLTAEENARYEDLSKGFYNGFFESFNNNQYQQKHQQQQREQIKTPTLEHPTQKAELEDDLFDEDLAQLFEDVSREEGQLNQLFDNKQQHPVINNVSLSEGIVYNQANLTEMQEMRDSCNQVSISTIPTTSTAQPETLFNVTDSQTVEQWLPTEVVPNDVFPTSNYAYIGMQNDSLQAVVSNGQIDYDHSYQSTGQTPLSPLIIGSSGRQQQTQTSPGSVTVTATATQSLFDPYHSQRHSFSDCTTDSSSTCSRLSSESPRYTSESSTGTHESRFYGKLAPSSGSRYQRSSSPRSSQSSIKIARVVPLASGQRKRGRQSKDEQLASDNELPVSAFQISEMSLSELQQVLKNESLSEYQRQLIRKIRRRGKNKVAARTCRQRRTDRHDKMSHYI
The class given is functional.

For assay [3], the target named is T2, Apoptotic protease-activating factor 1 (Homo sapiens, UniProt O14727).
T2 sequence (O14727 whole entry): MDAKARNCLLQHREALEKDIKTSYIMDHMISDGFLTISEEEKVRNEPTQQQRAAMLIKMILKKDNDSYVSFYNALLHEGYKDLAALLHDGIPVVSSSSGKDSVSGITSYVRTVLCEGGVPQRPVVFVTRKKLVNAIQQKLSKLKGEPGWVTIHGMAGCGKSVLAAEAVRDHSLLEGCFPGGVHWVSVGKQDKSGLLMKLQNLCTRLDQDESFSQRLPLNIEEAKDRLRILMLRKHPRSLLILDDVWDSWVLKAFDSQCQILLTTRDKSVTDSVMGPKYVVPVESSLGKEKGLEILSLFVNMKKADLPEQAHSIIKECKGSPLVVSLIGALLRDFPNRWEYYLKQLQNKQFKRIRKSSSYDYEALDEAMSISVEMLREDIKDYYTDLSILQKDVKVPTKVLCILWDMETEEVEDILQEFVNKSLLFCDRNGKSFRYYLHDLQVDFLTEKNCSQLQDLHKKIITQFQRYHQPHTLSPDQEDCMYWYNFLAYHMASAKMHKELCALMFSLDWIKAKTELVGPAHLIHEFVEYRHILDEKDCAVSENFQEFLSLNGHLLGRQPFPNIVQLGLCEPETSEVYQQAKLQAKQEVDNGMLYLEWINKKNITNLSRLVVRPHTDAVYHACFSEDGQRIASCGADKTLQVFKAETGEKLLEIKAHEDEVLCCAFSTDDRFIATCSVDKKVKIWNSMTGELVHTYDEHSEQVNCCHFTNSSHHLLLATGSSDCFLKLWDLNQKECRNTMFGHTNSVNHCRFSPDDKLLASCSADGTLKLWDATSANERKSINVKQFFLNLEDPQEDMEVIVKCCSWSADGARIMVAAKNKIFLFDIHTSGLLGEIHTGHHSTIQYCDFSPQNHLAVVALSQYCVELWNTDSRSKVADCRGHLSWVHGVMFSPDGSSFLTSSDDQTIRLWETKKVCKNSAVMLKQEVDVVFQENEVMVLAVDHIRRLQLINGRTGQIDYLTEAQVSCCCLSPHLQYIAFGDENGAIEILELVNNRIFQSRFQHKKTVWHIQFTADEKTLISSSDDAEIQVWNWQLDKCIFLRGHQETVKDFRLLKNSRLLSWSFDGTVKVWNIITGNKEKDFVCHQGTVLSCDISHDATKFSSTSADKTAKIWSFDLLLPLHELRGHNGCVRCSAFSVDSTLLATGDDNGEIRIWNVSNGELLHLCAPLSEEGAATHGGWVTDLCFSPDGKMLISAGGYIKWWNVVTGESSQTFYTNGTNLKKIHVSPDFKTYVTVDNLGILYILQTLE
The class given is functional.

A further assay addresses Cytochrome P450 3A4 (Homo sapiens, UniProt P08684).
The test system of a further assay is A-375. The experiment in a line: proliferation inhibition in MITF-low A375 cells – cell-based, cherry-pick samples, set 2, counter-screen for MITF modulator project, dose response (AID 540335). The format is functional. To be noted: Homo sapiens.
In assay [4] the target is T3, Microphthalmia-associated transcription factor (Homo sapiens, UniProt O75030).
T3 sequence (O75030 whole entry): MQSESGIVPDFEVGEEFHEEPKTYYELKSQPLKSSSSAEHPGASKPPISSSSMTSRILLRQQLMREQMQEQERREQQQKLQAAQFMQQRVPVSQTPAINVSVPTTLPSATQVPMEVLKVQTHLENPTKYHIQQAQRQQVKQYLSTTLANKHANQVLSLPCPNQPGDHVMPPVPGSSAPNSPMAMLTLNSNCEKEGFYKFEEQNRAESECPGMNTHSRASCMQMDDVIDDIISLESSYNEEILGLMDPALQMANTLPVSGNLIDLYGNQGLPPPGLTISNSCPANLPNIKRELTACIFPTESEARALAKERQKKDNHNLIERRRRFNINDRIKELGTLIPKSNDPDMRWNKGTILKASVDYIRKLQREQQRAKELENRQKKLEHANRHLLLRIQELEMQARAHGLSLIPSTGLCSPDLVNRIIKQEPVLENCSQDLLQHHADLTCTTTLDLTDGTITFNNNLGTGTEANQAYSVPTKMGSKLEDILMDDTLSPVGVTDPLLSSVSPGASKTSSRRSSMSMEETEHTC
The experiment in a line: reducers of TRPM1 reporter luminescence, concentration series – cell-based, SK-MEL-5, cherry-picked, set 3, MITF inhibitor project, dose response (AID 493073).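 Further: SK-MEL-5 melanoma cells with luciferase driven by the MITF target TRPM1 promoter.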 The format is functional.

Assay [5] addresses T4, Melanocortin receptor 4 (Homo sapiens, UniProt P32245). The class given is functional, cell-based.
Assay [6] can be described thus: Fluorescence-based cell-based high throughput dose response assay for inhibitors of the interaction of nucleotide-binding oligomerization domain containing 2 (NOD2) and the receptor-interacting serine-threonine kinase 2 (RIPK2). The class given is functional. Conditions: Homo sapiens.
Assay [7] is described as follows: reduction of Shn3 3'UTR-driven luciferase in osteoblasts – cell-based, Clone20 osteoblasts, firefly luciferase, cherry-picked, dose response (AID 624132).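 Further: firefly luciferase luminescence from reporter carrying the Shn3 3'UTR in osteoblasts.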 The format is functional.
A short description of assay [8]: Luminescence Cell-Based Dose Retest to Confirm Inhibitors of Cancer Stem Cells. [Related pubchem assays (depositor defined):AID2717, AID2721]. The format is functional. Conditions: Homo sapiens.
The test system of another assay is INS1. The experiment in a line: INS-1E survival protection against cytokine death – cell-based, luminescence, retest, dose response (AID 449756).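 Further: cell death triggered by IL-1 beta plus TNF-alpha plus IFN-gamma mixture; protective hits raise ATP signal compared with cytokine alone wells.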 The format is functional. Conditions: Rattus norvegicus.
Assay [9] is described as follows: non-specific 3'UTR reporter inhibition in Clone20-Shn3RL – cell-based, Renilla luciferase, cherry-picked, counter-screen for Shn3 inhibitor project, dose response (AID 624133). The class given is functional.
Assay [10] is described as follows: cAMP pathway inhibition in counterscreen cell line – TR-FRET cAMP detection, counter-screen for MC4R biased antagonist project, dose response (AID 602305).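 Further: U2OS cells stimulated with forskolin near its EC80 as the cAMP inducer; potency is for inhibition of forskolin-stimulated cAMP signaling.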 The class given is functional, cell-based. Background: Counterscreens check selectivity or assay interference.
The target in assay [11] is T4, Melanocortin receptor 4. The experiment in a line: inhibitors of MC4R cAMP signaling – cell-based, TR-FRET, biased antagonists, dose response (AID 602298).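 Further: antagonist potency against agonist-stimulated cAMP production.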 The format is functional.
The nature of assay [12]: loss of viability in HepG2 cells – cell-based, CellTiter-Glo, cherry-picked, cytotoxicity control for Shn3 inhibitor project, dose response (AID 624134). The class given is functional. In general terms: Cellular ATP, detected with luciferase, serves as a proxy for viable cell number.
Another assay concerns the target Genome polyprotein (dengue virus type 2, UniProt P29990). In words: flavivirus cap methylation enzyme inhibition – biochemical, confirmation dose response, primary screen (AID 588689). The format is functional.
The test system of a further assay is Vero. In words: viability of Vero cells under compound – cytotoxicity control for flavivirus capping enzyme inhibitors (AID 588742). The class given is functional. Conditions: Chlorocebus sabaeus.
In another assay the test system is H9c2. In words: cells. The class given is functional, cell-based. Conditions: Rattus norvegicus, H9c2, Myocardium.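 Further: confirmatory concentration-response retest of ultra-high-throughput screening hits for modulation of myocardial damage; cell death induced by hydrogen peroxide oxidative stress; compound pretreatment for 60 min then peroxide exposure for 2 h; potency is for protecting the cells against peroxide damage rather than for killing them.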
Assay [13] concerns the target T5, Corticotropin-releasing factor receptor 2/Corticotropin-releasing factor-binding protein (Homo sapiens, UniProt P24387+Q13324).
T5 sequence (Q13324 whole entry): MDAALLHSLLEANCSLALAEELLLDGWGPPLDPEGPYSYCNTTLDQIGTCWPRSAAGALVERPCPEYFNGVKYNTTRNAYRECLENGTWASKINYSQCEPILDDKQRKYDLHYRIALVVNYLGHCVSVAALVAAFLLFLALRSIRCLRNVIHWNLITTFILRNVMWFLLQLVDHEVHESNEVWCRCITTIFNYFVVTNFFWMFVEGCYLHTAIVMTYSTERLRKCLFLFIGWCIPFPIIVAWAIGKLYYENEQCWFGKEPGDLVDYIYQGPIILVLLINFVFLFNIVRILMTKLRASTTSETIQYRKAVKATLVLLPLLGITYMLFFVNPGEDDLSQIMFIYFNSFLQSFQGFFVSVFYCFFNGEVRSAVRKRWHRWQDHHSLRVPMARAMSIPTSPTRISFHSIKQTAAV
T5 sequence (P24387 whole entry): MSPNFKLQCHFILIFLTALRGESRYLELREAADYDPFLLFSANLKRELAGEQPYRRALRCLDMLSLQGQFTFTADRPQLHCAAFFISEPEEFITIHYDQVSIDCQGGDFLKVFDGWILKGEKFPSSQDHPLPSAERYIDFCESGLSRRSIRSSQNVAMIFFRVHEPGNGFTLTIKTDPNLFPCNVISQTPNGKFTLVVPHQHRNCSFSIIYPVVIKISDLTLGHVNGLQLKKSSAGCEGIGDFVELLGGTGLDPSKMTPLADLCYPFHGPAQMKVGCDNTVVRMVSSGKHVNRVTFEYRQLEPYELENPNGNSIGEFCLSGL
In words: activators of CRF receptor 2 with binding protein – uHTS hits, confirmation (AID 602473). The class given is functional. To be noted: read-out: EC50_Mean.

Assay [14] is described as follows: THP-1 cell cytotoxicity, cytotoxicity control, set 4 (AID 504911). The class given is functional. To be noted: Mycobacterium tuberculosis.

T4 sequence (P32245 whole entry, the tested form may be a part): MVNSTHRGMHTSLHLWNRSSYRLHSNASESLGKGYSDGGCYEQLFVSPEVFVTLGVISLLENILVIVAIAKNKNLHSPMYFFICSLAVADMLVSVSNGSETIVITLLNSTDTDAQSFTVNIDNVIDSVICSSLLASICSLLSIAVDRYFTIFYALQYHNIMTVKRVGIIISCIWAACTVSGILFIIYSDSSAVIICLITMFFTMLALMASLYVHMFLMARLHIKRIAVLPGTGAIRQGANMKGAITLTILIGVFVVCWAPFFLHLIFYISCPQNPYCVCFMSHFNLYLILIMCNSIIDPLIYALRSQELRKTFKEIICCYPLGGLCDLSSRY
Genome polyprotein, sequence (P29990 2492-3391 limits assumed): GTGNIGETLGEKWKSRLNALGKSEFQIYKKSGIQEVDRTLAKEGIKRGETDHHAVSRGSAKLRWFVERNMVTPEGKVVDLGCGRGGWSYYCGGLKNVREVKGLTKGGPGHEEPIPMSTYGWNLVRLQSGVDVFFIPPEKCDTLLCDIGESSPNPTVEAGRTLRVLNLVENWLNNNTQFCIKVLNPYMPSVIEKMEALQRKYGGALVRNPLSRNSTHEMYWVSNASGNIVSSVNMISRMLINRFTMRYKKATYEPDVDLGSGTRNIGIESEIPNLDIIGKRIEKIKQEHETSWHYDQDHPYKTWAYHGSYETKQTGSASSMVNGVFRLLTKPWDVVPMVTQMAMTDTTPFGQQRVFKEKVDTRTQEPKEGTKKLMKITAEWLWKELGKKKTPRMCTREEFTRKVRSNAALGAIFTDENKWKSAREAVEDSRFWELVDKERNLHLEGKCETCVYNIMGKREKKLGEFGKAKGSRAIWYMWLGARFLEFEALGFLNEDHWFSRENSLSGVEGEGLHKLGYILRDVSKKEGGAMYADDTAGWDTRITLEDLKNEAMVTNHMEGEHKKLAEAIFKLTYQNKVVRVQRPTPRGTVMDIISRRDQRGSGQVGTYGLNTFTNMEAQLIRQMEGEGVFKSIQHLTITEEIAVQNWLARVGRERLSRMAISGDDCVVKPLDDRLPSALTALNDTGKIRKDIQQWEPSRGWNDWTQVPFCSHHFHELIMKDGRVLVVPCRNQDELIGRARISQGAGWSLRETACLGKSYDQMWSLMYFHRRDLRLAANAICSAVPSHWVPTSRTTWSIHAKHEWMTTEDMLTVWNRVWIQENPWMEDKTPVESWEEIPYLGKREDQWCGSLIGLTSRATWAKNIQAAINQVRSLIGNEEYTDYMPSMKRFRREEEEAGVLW
Cytochrome P450 3A4, sequence (P08684 whole entry): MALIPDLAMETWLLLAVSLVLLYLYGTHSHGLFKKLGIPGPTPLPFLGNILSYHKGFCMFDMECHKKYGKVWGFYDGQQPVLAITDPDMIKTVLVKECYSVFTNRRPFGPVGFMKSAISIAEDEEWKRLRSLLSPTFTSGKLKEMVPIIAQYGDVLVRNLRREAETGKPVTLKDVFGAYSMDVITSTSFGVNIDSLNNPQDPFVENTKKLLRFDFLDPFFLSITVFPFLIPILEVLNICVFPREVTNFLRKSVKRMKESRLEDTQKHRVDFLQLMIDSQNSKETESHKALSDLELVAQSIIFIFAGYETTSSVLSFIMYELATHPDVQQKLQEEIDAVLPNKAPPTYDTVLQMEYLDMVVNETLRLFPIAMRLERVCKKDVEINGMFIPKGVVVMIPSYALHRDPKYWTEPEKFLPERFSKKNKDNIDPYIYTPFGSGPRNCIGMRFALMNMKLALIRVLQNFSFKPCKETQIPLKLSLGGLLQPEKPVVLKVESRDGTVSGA

As to `COc1ccc2c(c1)Cc1sc(NC(=O)c3ccccc3)nc1-2`, the EC50 in assay [1] was 31.3 µM (active); in the assay on H4, 4.58 µM (active); in [2], 42.4 µM (active). Besides, the values for the IC50 (on Protein skinhead-1; in assay [3]) were > 100 µM (inactive) and 27.5 µM (active), respectively.
On to `CC1CC2(CCCCC2)N2C(=O)C(=O)c3cccc1c32` (configuration not stated), for which the AC50 (usually the concentration at which the activity in the assay is half-maximal) at Cytochrome P450 3A4 is 25.1 µM (inconclusive). In [3], the IC50 (commonly the midpoint of a concentration-inhibition curve) was 24.4 µM (active).
As for `COc1cccc2c1C(=O)C=C(C)C2=O`, the figures for the AC50 (with A-375; in assay [4]) were 37.8 µM (active) and 7.83 µM (active), respectively. The IC50 in assay [3] is 14.4 µM (active).
On to `CC(=O)Nc1cc(-c2ccccc2F)cn2c(-c3cccc(C(F)(F)F)c3)cnc12`, for which, at Melanocortin receptor 4 [5], the EC50 was > 89.2 µM (inactive).
As to `CC1=C(CO)C(=O)OC([C@@H](C)C2CC[C@H]3C4C[C@H]5O[C@]56[C@@H](O)C=CC(=O)[C@]6(C)C4CC[C@]23C)C1` (some centres not stated), the EC50 (in [1]; in the assay on H4; in [2]) was > 120 µM (not active) each time. Besides, the IC50 in [6] was 2.65 µM (active); in [10] it was > 64.6 µM (inactive); on Melanocortin receptor 4 [11] it was > 64.6 µM (inactive). The AC50 in assay [7] was 0.674 µM (active); in assay [8] it was 0.982 µM (active); in the assay with INS1, 7.49 µM (active); in assay [9], 1.99 µM (active); in [12], 9.71 µM (active).
`NC(=O)C1=C(c2ccccc2)c2ccccc2C1=O`: the half-maximal inhibitory concentration (IC50) at Genome polyprotein is 59.5 µM (active); in the assay on H9c2, > 79 µM (inactive). For the same molecule, the CC50 – broadly, the concentration at which the toxic effect on the cells reaches its halfway point – in the assay with Vero was 32.1 µM (active). Besides, the EC50 in assay [13] was 11.9 µM (active).
Regarding `CCCc1cc(C(N)=S)ccn1` [PROTIONAMIDE], the 50% cytotoxic concentration (CC50) in [14] was > 100 µM (active).
